# Results taken from patent US20080182895A1 (priority 2006, published 2008).
# Read-outs that look alike come from different tables or passages of the source.
# Experiments:
# Format in all cases: cell-based, Hepatitis C virus
# 1b, BB7 replicon (WT) = experiment: Replicon 3-day assay, wild type; conditions: read-out: EC50 (μM or pg/ml) ± SD
# Method: (§1) pBB7-replicon variant DNAs were linearized with Sca I, and in vitro transcription was performed using Ambion's […]® T7 High Yield Transcription kit (Austin, Tex.). Purified RNA transcripts were electroporated into Huh-7 cells in quadruplicates using a Biorad GENE PULSER® Electroporation System (Setting: 270V, 950 μF) (Hercules, Calif.). Stably transfected replicon variant cell lines were initially selected with 0.25 mg/ml G418 and stepped up to 1 mg/ml before further testing. One cell plate was stained with Crystal Violet to visualize the number of colonies and determine the colony formation efficiency. Individual cell clones from each plate were pooled and expanded for drug susceptibility testing.
# (§2) The contribution of individual amino acid changes on drug resistance was assessed in replicon variants containing single amino acid mutations in NS5B in the background of the genotype 1b, BB7 adaptive replicon (Blight et al. (2000) Science 290:1972-74).
# (§3) Drug susceptibility of the replicon-containing cells to various compounds was evaluated as described previously (Howe et al. (2004) Antimicrobial Agents Chem. 48:4813-21). Briefly, cells were treated with increasing concentrations of compounds in medium containing 2% FCS and no G418 for three days at 37° C. and 5% CO2. After incubation, total RNA from the replicon-containing cells was isolated. The levels of HCV, glyceraldehyde 3-phosphate dehydrogenase (GAPDH) and ribosomal (rRNA) RNAs were quantified using TAQMAN® (PE Applied Biosystems, Foster City, Calif.) reverse transcriptase PCR reactions. The amounts of HCV, 18S ribosomal, and GAPDH RNAs in each sample were estimated by comparing the number of cycles during the exponential phase of the PCR amplification with those in the corresponding standard curves. HCV RNA standards used for the construction of the standard curve were prepared by extracting the total RNA from the Clone A cells. The RNA sample was sent to National Genetics Institute to quantify HCV RNA. Total RNA extracted from Clone A cells was quantified by O.D.260 measurement and used for construction of the standard curves of rRNA and GAPDH. The concentrations of the compounds that inhibit 50% of the HCV RNA level (EC50) were determined using the MDL® LIFE SCIENCE WORKBENCH® (LSW) Data Analysis software (MDL Information Systems, San Leandro, Calif.) in Microsoft EXCEL®. The amounts of HCV or GAPDH RNAs in the samples were expressed as HCV RNA (copies) or GAPDH (ng), respectively, per μg of total RNA using rRNA as a marker for total RNA measurement.
# 1b, BB7-C316Y replicon = experiment: Replicon variant 3-day assay; conditions: for Fold Resistance: C316Y replicon vs 1b, BB7 (WT); for EC50: read-out: EC50 (μM or pg/ml) ± SD
# Method: as §1, §2, §3
# [1] = system: 1b, BB7 replicon variants with single NS5B mutations; experiment: Replicon variant assay, several variants taken together; conditions: replicon variants with HCV-796-associated mutations
# Method: as §1, §2, §3
Structure (SMILES),"EC50 (1b, BB7 replicon (WT); Hepatitis C virus) [µM]","inhibition of the C316Y replicon compared with wild type (in words) (1b, BB7-C316Y replicon; C316Y replicon variant vs wild type replicon)","Fold Resistance (1b, BB7-C316Y replicon) [fold]","EC50 (1b, BB7-C316Y replicon; Hepatitis C virus) [µM]",susceptibility of HCV-796-resistant replicon variants to other antiviral agents (in words) ([1]; listed as Ribavirin),susceptibility of HCV-796-resistant replicon variants to other antiviral agents (in words) ([1]; listed as ribavirin),"EC50 (1b, BB7 replicon (WT); 1b, BB7 (WT) replicon) [µM]","EC50 (1b, BB7-C316Y replicon; C316Y replicon) [µM]"
"NC(=O)c1ncn([C@@H]2O[C@H](CO)[C@@H](O)[C@H]2O)n1 [RBV, 1-β-D-ribofuranosyl-1H-1,2,4-triazole-3-carboxamide, reference compound]",133 ± 40.5,as efficiently as in the wild type replicon,1.8,201 ± 36.7,inhibits,remained susceptible,–,–
"CCC[C@]1(CC(=O)O)OCCc2c1[nH]c1c(C)ccc(C#N)c21 [HCV-371, [(1R)-5-cyano-8-methyl-1-propyl-1,3,4,9-tetrahydropyano[3,4-b]indol-1-yl]acetic acid]",–,–,0.9,–,–,–,12.2 ± 1.8,10.8 ± 0.8
